Source: US12691114B2, “Compositions for inhibition of herpesviruses” (The Medical College of Wisconsin, Inc., priority 2020, dated 2026)

Tests used:
in vitro = conditions: human
Description: Cytotoxicity assay: MTT assay was performed as described by manufacturer's instructions (Sigma-Aldrich). Non-infected cells were treated with compounds for 72 h or 10 days (same time points of the antiviral assay), and 20 μL/well of MTT [3-(4, 5-Dimethyl-2-thiazolyl)-2, 5-diphenyl-2H-tetrazolium bromide], 5 mg/mL in phosphate buffered saline (PBS)] was added to each well. After shaking at 150 rpm for 5 min the plates were incubated at 37° C. for 2-3 h. Conversion of yellow solution to dark blue formazan by mitochondrial dehydrogenases of living cells was quantified by measuring absorbance at 560 nm.
HCMV inhibition was measured by luciferase activity of pp28-recombinant Towne and pp28 GCV-resistant Towne strains of HCMV (72 hpi) and by plaque reduction using HCMV Towne or TB40 (10 days). Viral protein expression was measured by Western blot.

HCMV = assay: Drug combination of GCV and 2955 by plaque assay, Bliss model; type: cell-based, human cytomegalovirus; conditions: Human betaherpesvirus 5; combination experiment with NCGC2955, plaque assay; read-out: EC50 of Compound 1 (GCV)
Description: Drug combination and analysis: These experiments were performed as previously reported^40. The combination of GCV and each compound was tested using the pp28-luciferase. Briefly, 2×10^6 HFFs/plate were seeded in 96-well plates and infected with the pp28-luciferase Towne HCMV strain (MOI=1). First, a dose response curve was generated for each drug individually to determine its EC50. Then, drugs were combined at twice their EC50, diluted in DMEM with 4% FBS, followed by serial dilution and added together after infection. Luciferase activity of the combination and each drug individually was quantified at 72 hpi. The combination of letermovir and each of the new compounds was tested by the plaque assay using TB40. The same principle applied in this assay for the drug combination effect, and plaques were counted at 8 dpi. The Bliss model was used to calculate the effect of each drug combination on pp28-luciferase activity and plaque reduction. […]
(§1) Pattern of drug combination with GCV and letermovir: The effect of each compound alone or in combination with GCV or letermovir was tested in HCMV-infected HFFs. […] For letermovir and its combination with each of the five compounds the EC50 was determined based on plaque assay. […] All other combinations and Bliss coefficients were measured by pp28- luciferase.

Epstein Barr Virus (EBV) = assay: Inhibition of lytic EBV replication in Akata cells, real-time PCR of BALF5; type: cell-based; conditions: human gammaherpesvirus 4, IgG induction, real-time PCR at 48 hours, NA = Not active
Description: Inhibition of lytic Epstein Barr Virus (EBV) replication: Akata cells (0.5×10^6/well of 24-well plate) latently infected with EBV were induced with 100 μg/ml of goat antihuman IgG (Sigma). Compounds and GCV control were added to triplicate wells immediately after the addition of human IgG. Cells were collected 48 hours after lytic induction for DNA quantification. Cellular DNA was purified using Wizard SV Genomic Kit (Promega, Madison, WI). The effect of the compounds on lytic induction of EBV was analyzed by real-time PCR of the EBV DNA polymerase gene, BALF5^38.
(§2) Inhibition of other herpesviruses: Inhibition of herpes simplex 1 and 2 (HSV1, HSV2), Epstein Barr virus (EBV) and mouse CMV (MCMV) was tested with the five compounds. Plaque reductions assays were used for HSV1, HSV2 and MCMV. Inhibition of lytic EBV replication was measured by real-time PCR in AKATA cells following IgG induction. Only MLS8554 was active against HSV1, HSV2 and MCMV (Table 2).

[1] = system: pp28-luciferase Towne HCMV; assay: Drug combination with GCV, pp28-luciferase Towne, Bliss model; type: cell-based, human cytomegalovirus; conditions: Human betaherpesvirus 5, read-out: EC50 of Compound 1 (GCV), pp28-luciferase Towne, MOI=1, 72 hpi; one value per combination experiment
Description: (§3) Drug combination and analysis: These experiments were performed as previously reported^40. The combination of GCV and each compound was tested using the pp28-luciferase. Briefly, 2×10^6 HFFs/plate were seeded in 96-well plates and infected with the pp28-luciferase Towne HCMV strain (MOI=1). First, a dose response curve was generated for each drug individually to determine its EC50. Then, drugs were combined at twice their EC50, diluted in DMEM with 4% FBS, followed by serial dilution and added together after infection. Luciferase activity of the combination and each drug individually was quantified at 72 hpi. The combination of letermovir and each of the new compounds was tested by the plaque assay using TB40. The same principle applied in this assay for the drug combination effect, and plaques were counted at 8 dpi. The Bliss model was used to calculate the effect of each drug combination on pp28-luciferase activity and plaque reduction. In this model, drug combination represents the product of two probabilistically independent events as described in the following equation^41.
(§4) [formula] Where D is the drug concentration, m is the slope, and EC50 is the effective concentration resulting in 50% virus inhibition. The combined effect of two inhibitors (Fu, fractional unaffected) is computed as the product of individual effects of the two inhibitors, Fu1 and Fu2. If the ratio of observed fold inhibition divided by the expected fold inhibition is greater than 1, the compounds are synergistic. If the ratio is less than 1, the combination is considered antagonistic, and if it equals to 1 the combination is additive.
as §1

HSV1 clinical isolate = assay: Plaque reduction assay, HSV1 in Vero cells; type: cell-based, Human Herpesvirus 1; conditions: Human alphaherpesvirus 1, Vero, read-out: EC50—HSV1-C1 (μM)
Text: (§5) Viruses and antiviral assays: A recombinant pp28-luciferase Towne HCMV strain expressing luciferase under the control of the UL99 (pp28) late promoter was reported to provide a highly-sensitive and reproducible reporter for drug screening^20. A GCV-resistant HCMV pp28-luciferase that contains a C607Y mutation in UL97 was reported^37. The HCMV TB40 strain was obtained from ATCC (VR-1578). Clinical isolates of Human Herpesvirus 1 and 2 (HSV1, HSV2) were collected from the Johns Hopkins Microbiology laboratory without identifiers that could link them to a specific patient. Mouse CMV (MCMV) Smith strain (ATCC VR-1399) was used for infection of MEFs.
(§6) Plaque reduction assay: HFFs were seeded into 12-well plates (2×10^5 cells/well) and infected with HCMV TB40 at approximately 100 plaques/well. After 90 min, media were aspirated, and DMEM containing 0.5% carboxymethyl-cellulose (CMC), 4% fetal bovine serum (FBS), and drugs were added into duplicate wells. Following incubation at 37° C. for 10-12 days the overlay was removed, and plaques were counted after crystal violet staining. For HSV1 and HSV2 replication in Vero cells, the adsorption time was 60 min and plaques were counted after 36 h. Plaque assays in MEFs were completed after 3 days.
as §2

[2] = system: HCMV Towne entry into HFFs; assay: HCMV entry, indirect immunofluorescence assay for pp65; type: cell-based; conditions: pretreatment 24 h: MLS8969 3 μM, Heparin 30 μM, GCV 5 μM; IFA 2 hpi
Description: HCMV entry and indirect immunofluorescence assay: MLS8969, GCV and heparin control were used to determine inhibition of HCMV entry. Compounds were diluted in serum-free media and added to HFFs seeded on chamber slides 24 h prior to infection. After infection (MOI 1 or 0.1 PFU/cell) for 2 h, cells were fixed with 100% chilled methanol, blocked for 1 h with phosphate-buffered saline (PBS), 5% serum, 0.3% Triton X-100. Cells were then incubated with mouse monoclonal anti-pp65 antibody, 1:50 (Vector Laboratories, Burlingame, CA) at 37° C. in humidified chambers for 1 h, washed three times with TBST (0.1%), incubated with rhodamine-conjugated anti-mouse IgG, 1:500 (Sigma) at 37° C. in humidified chambers for 1 h and washed with TBST (0.1%). A drop of mount oil containing DAPI (Santa Cruz Biotechnology, Santa Cruz, CA) was added to the slides before visualization with a Zeiss ZI fluorescence microscope. Images were captured at 40× magnification.

HSV2 clinical isolate = assay: Plaque reduction assay, HSV2 in Vero cells; type: cell-based, Human Herpesvirus 2; conditions: Human alphaherpesvirus 2, Vero, read-out: EC50—HSV2-C1 (μM)
Text: as §5, §6, §2

[3] = system: Mouse CMV (MCMV) Smith strain; assay: Plaque assay, mouse CMV in MEFs; type: cell-based, mouse cytomegalovirus; conditions: Murid betaherpesvirus 1; plaque reduction, MEFs; NA = Not active
Text: as §5, §6, §2

HCMV TB40 = assay: Drug combination with letermovir, plaque assay TB40, Bliss model; type: cell-based, human cytomegalovirus; conditions: Human betaherpesvirus 5, read-out: EC50 of Compound 1 (Letermovir)
Description: as §3, §4
Pattern of drug combination with GCV and letermovir: The effect of each compound alone or in combination with GCV or letermovir was tested in HCMV-infected HFFs. […] A ratio of observed fold inhibition divided by the expected fold inhibition of >1 was considered drug synergy, <1 as drug antagonism, and =1 as additive. For letermovir and its combination with each of the five compounds the EC50 was determined based on plaque assay. The combination of GCV and 2955 was also tested by plaque assay. All other combinations and Bliss coefficients were measured by pp28- luciferase.

| Compound | CC50 (in vitro) [µM] | EC50 (HCMV) [µM] | EC50 (Epstein Barr Virus (EBV)) [µM] | EC50 [1] [µM] | EC50 (HSV1 clinical isolate) [µM] | inhibition of HCMV entry (pp65 nuclear staining), in words [2] | EC50 (HSV2 clinical isolate) [µM] | EC50 [3] [µM] | EC50 (HCMV TB40) [µM] |
| --- | --- | --- | --- | --- | --- | --- | --- | --- | --- |
| Nc1nc(O)c2ncn(COC(CO)CO)c2n1 [GCV, ganciclovir, reference compound] | > 200 | 0.77 ± 0.08 | 5.2 ± 0.4 | 1.33 | 0.04 | did not affect pp65 nuclear staining | 0.58 | 0.96 ± 0.1 |  |
| COc1cccc(N2CCN(C3=Nc4c(F)cccc4[C@H](CC(=O)O)N3c3cc(C(F)(F)F)ccc3OC)CC2)c1 [Letermovir, letermovir, reference compound] |  |  |  |  |  |  |  |  | 0.0011 |
| Heparin |  |  |  |  |  | inhibited HCMV entry |  |  |  |
